This data set can be described thus: Assessment of hygroscopic properties: residual water weight of solutions as a function of time in a thermal container. The format is physicochemical. The note with it: 50° C., humidity 30%, each compound at 5% in water, after 120 minutes, versus water as negative control (FIG. 1). How it is done: Each compound was dissolved in water (w/w) to obtain a 5% solution. To prepare a 5% two-amino acid solution, the L-arginine powder was dissolved directly in the 5% PCA sodium salt solution (w/w). To assess the hygroscopic properties of amino acids, we studied the residual water weight of different solutions as a function of time. We determined the weight of residual water in each solution after different times in an atmosphere in which temperature and humidity were controlled in a thermal container (Vötsch VC0018). The temperature used for our assays was initially set at 50° C. and later at 30° C. to approximate skin conditions more closely. Humidity was set at 30%. Using these parameters, we determined the weight of each solution before heating it and at different times during the heating. The heating lasted for 120 minutes at 50° C. and data was recorded from 45 to 120 minutes. At 30° C. the heating lasted for 135 minutes and data was recorded from 90 to 135 minutes. The residual weight expected at the end of the study which corresponds to the weight of the compound in the solution was calculated (for example, if the initial total weight for a 5% solution was 100 mg, the weight of the compound was 5 mg). The residual water weight of each solution was obtained by subtracting the expected weight of the compound from the total weight of the solution at different times. […]

Where a name gives a salt, the structure may show the parent alone.

As for `O=C1CCC(C(=O)O)N1` (centres unmarked) [PCA Na, 2-Pyrrolidone-5-carboxylic acid sodium salt], the “percentage of residual water weight (evaporation of the water contained in the solutions)” value is listed as “decreased the evaporation of the water”.
The value for `N=C(N)NCCC[C@H](N)C(=O)O` [L-Arginine] was “decreased the evaporation of the water”.

Source of the values: patent US8795705B2, “Dermatologic compositions comprising pyrrolidone-5-carboxylic acid and at least one entity chosen from citrulline, arginine and asparagine, and uses thereof in the treatment of atopic dermatitis” (Galderma Research & Development, priority 2007, dated 2014).
